Measurements taken from PubChem BioAssay (NCI).
“And” between values parts separate entries of the source, which are not always exact repeats. Identical values can stand only once.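 GI50 = concentration required for 50% inhibition of growth. TGI: total growth inhibition.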

Tests used:
Assay in all cases: inhibition of tumour cell growth, NCI panel, 384-well format
HOP-62 NSCLC = system: HOP-62 NSCLC
SK-MEL-5 melanoma = system: SK-MEL-5 melanoma
NCI-H23 lung = system: NCI-H23 lung
OVCAR-4 ovarian = system: OVCAR-4 ovarian
OVCAR-5 ovarian = system: OVCAR-5 ovarian
HT29 colon = system: HT29 colon
LOX IMVI melanoma = system: LOX IMVI melanoma
EKVX NSCLC = system: EKVX NSCLC
PC-3 prostate = system: PC-3 prostate
M14 melanoma = system: M14 melanoma
MDA-MB-468 breast = system: MDA-MB-468 breast
SNB-19 CNS = system: SNB-19 CNS
IGROV1 ovarian = system: IGROV1 ovarian
T-47D breast = system: T-47D breast
MOLT-4 leukemia = system: MOLT-4 leukemia
SN12C renal = system: SN12C renal
NCI-H226 lung = system: NCI-H226 lung
SF-539 CNS = system: SF-539 CNS
A549 NSCLC = system: A549 NSCLC
UACC-257 melanoma = system: UACC-257 melanoma
UO-31 renal = system: UO-31 renal
CCRF-CEM leukemia = system: CCRF-CEM leukemia
HL-60(TB) leukemia = system: HL-60(TB) leukemia
CAKI-1 renal = system: CAKI-1 renal
DU-145 prostate = system: DU-145 prostate
SK-MEL-28 melanoma = system: SK-MEL-28 melanoma
NCI/ADR-RES ovarian = system: NCI/ADR-RES ovarian
SF-268 CNS = system: SF-268 CNS
MDA-MB-435 melanoma = system: MDA-MB-435 melanoma
OVCAR-8 ovarian = system: OVCAR-8 ovarian

Cn1cc(-c2nc(N[C@@H]3CCCC[C@@H]3N)c(F)c3c2C(=O)NC3)cn1
GI50 (HOP-62 NSCLC): 2.31 µM and 4.56 µM
TGI (HOP-62 NSCLC): 9.99 µM and 16.5 µM
TGI (SK-MEL-5 melanoma): 17.8 µM and 34.5 µM
GI50 (NCI-H23 lung): 2.17 µM and 4.29 µM
TGI (NCI-H23 lung): 13 µM and 17.5 µM
GI50 (OVCAR-4 ovarian): 15.2 µM and 21.4 µM
TGI (OVCAR-4 ovarian): 30.5 µM and 43.7 µM
GI50 (OVCAR-5 ovarian): 6.09 µM
TGI (OVCAR-5 ovarian): 21.6 µM
GI50 (HT29 colon): 4.79 µM and 7.58 µM
TGI (HT29 colon): 58.5 µM and 26.6 µM
GI50 (LOX IMVI melanoma): 1.85 µM and 3.58 µM
TGI (LOX IMVI melanoma): 3.98 µM and 12.7 µM
GI50 (EKVX NSCLC): 5.37 µM and 12.8 µM
TGI (EKVX NSCLC): 29.5 µM and 62.4 µM
GI50 (PC-3 prostate): 9.39 µM and 15.4 µM
TGI (PC-3 prostate): 45.3 µM and 86.9 µM
GI50 (M14 melanoma): 0.615 µM and 1.56 µM
TGI (M14 melanoma): 25.7 µM and 14.5 µM
GI50 (MDA-MB-468 breast): 3.08 µM and 4.3 µM
TGI (MDA-MB-468 breast): 6.44 µM and 11.7 µM
GI50 (SNB-19 CNS): 17.8 µM and 19.4 µM
TGI (SNB-19 CNS): 33.7 µM and 39.1 µM
GI50 (IGROV1 ovarian): 2.99 µM and 10.9 µM
TGI (IGROV1 ovarian): 28.9 µM and 90.9 µM
GI50 (T-47D breast): 32.5 µM and 56.3 µM
TGI (T-47D breast): 85.3 µM and > 100 µM
GI50 (MOLT-4 leukemia): 0.299 µM and 1.14 µM
GI50 (SN12C renal): 2.09 µM and 1.95 µM
TGI (SN12C renal): 10.9 µM and 7.66 µM
GI50 (NCI-H226 lung): 2.08 µM and 4.38 µM
TGI (NCI-H226 lung): 7.05 µM and 27.9 µM
GI50 (SF-539 CNS): 1.35 µM and 3.09 µM
TGI (SF-539 CNS): 3.56 µM and 13 µM
GI50 (A549 NSCLC): 4.08 µM and 6.73 µM
TGI (A549 NSCLC): 33.2 µM and 32.9 µM
GI50 (UACC-257 melanoma): 12.8 µM and 33.7 µM
TGI (UACC-257 melanoma): 33.4 µM and > 100 µM
GI50 (UO-31 renal): 7.89 µM and 11 µM
TGI (UO-31 renal): 20.5 µM and 23.2 µM
GI50 (CCRF-CEM leukemia): 1.48 µM and 1.75 µM
TGI (CCRF-CEM leukemia): 2.97 µM and 3.26 µM
GI50 (HL-60(TB) leukemia): 3.18 µM and 2.76 µM
TGI (HL-60(TB) leukemia): 14.7 µM and 13.3 µM
GI50 (CAKI-1 renal): 3.22 µM and 4.17 µM
TGI (CAKI-1 renal): 19.7 µM and 19.3 µM
GI50 (DU-145 prostate): 4.08 µM and 9.76 µM
TGI (DU-145 prostate): 30.8 µM and 38.1 µM
GI50 (SK-MEL-28 melanoma): 10.2 µM and 11.2 µM
TGI (SK-MEL-28 melanoma): 66.1 µM and > 100 µM
GI50 (NCI/ADR-RES ovarian): 38.8 µM and > 100 µM
TGI (NCI/ADR-RES ovarian): > 100 µM
GI50 (SF-268 CNS): 2.79 µM and 9.19 µM
TGI (SF-268 CNS): 15.2 µM and 45.5 µM
GI50 (MDA-MB-435 melanoma): 4.49 µM and 6.35 µM
TGI (MDA-MB-435 melanoma): > 100 µM
GI50 (OVCAR-8 ovarian): 6.08 µM and 12.2 µM
